The source of these data is article PMC6895199, “A new antiviral scaffold for human norovirus identified with computer-aided approaches on the viral polymerase” (Scientific Reports, 2019).

Like-named read-outs stand apart in the source and are kept apart here.

For one series, the system named is HuNoV GI.1 replicon. Description: HuNoV GI replicon assay (HGT-NV cells, qRT-PCR). Type of series: cell-based, human norovirus GI.1. The procedure: Given that in this system the gene encoding for the major capsid protein is replaced by a neomycin resistance gene, no new virus particles will be produced but the non-structural proteins are expressed and the replication of the genomic RNA can be studied.
(§1) Cells and virus: MNV (virus strain MNV-1.CW1) was propagated in RAW 264.7 cells grown in DMEM (Life Technologies, Gent, Belgium) supplemented with 10% or 2% FBS, 2 mM L-glutamine, 20 mM HEPES, 0.075 g/L sodium bicarbonate, 1 mM sodium pyruvate, 100 U penicillin/mL and 100 µg/mL streptomycin at 37 °C in a humidified atmosphere of 5% CO2. The human norovirus GI.1 replicon harboring gastric tumor-1 cell line (HGT-NV) (kindly provided by Dr. Ian Goodfellow, University of Cambridge) was maintained in DMEM supplemented with 10% FBS, 2mM L-glutamine, 0.075 g/L sodium bicarbonate and 1.0 mg/ml of Geneticin (G418; Life Technologies), at 37 °C in a humidified atmosphere of 5% CO2[34].
Antiviral assay with the HGT-NV replicon: The inhibitory effect of Compounds on human norovirus replication was assessed by quantification of the levels of HuNoV GI replicon RNA and of the reference (housekeeping) gene β-actin mRNA [by quantitative reverse transcription polymerase chain reaction (qRT-PCR)]. To this end, HGT cells (2000 cells/well) were seeded in 96-well plates, in complete DMEM without the selection marker G418. Following an incubation period of 24 h, a serial dilution of rupintrivir was added to the cultures. After 72 h of incubation, cell monolayers were washed with phosphate-buffered saline (PBS) and collected for quantification of RNA load by qRT-PCR. Intracellular RNA was extracted from cells using the cell-to-cDNA lysis buffer (Ambion, Life Technologies). For detection of HuNoV GI replicon RNA, forward (5′-CCG GCT ACC TGC CCA TTC-3′), reverse (5′-CCAGATCATCCTGATCGACAAG-3′) primers and probe (5′-FAM-ACATCGCATCGAGCGAGCACGTAC-TAMRA-3′) for the neomycin gene were used. For detection of β-actin mRNA, forward (5′-GGCATCCACGAAACTACCTT-3′), reverse (5′-AGCACTGTGTTGGCGTACAG-3′) primers and probe (5′-HEX-ATCATGAAGTGTGACGTGGACATCCG-BHQ1–3′) were used. One-step qRT-PCR was performed in a 20 µL reaction mixture containing 10 µl 2X iTaq Universal SYBR® Green one step reaction mix (Bio-rad, California, USA), 5.17 µl RNAse free water, 0.5 µl of iScript reverse transcriptase (Bio-rad, California, USA), 4 µl of the template RNA and either 300 nM of HuNoV GI replicon primers and probe, 300 nM of β-actin primers and 200 nM of probe. Cycling conditions were: reverse transcription at 50 °C for 10 min, initial denaturation at 95 °C for 3 min, followed by 40 cycles of denaturation at 95 °C for 15 s, annealing and extension at 60 °C for 30 seconds (Roche Lightcycler®96, Roche Diagnostics, Belgium). To determine the relative expression levels of HuNoV GI replicon RNA, β-actin was used as a normalizer and ratios were calculated using the Pfaffl method. The Expression Ratio (HuNoV GI Replicon/β-actin) was calculated as: Expression Ratio = (E HuNoV)^ΔCT, HuNoV (CC – TC)/(Eβ-actin)^ΔCT, β-actin (CC – TC), where E HuNoV and Eβ-actin represent the amplification efficiency (E = 10^–1/slope) for the HuNoV GI replicon and β-actin qRT-PCR reactions, respectively. ΔCT, HuNoV (CC – TC) is the Ct of untreated control cells (CC) minus the Ct of cells treated with a compound concentration (TC) obtained with HuNoV GI replicon primers and probe. ΔCT, β-actin (CC – TC) is the Ct of untreated control cells (CC) minus the Ct of cells treated with a compound concentration (TC) obtained with β-actin primers and probe. Efficiency values (E HuNoV and Eβ-actin) were determined for each qRT-PCR reaction.
On the technique in general: Replicon systems follow genome replication, usually without infectious particles.

The next series concerns MNV. Description: MNV CPE reduction assay (MTS) in RAW 264.7 cells. Type of series: cell-based, mouse norovirus (MNV-1.CW1). Conditions: Norovirus, RAW264.7, in Mus musculus. As to the method: The newly prepared compounds 2–7 and 34–35 were evaluated for their antiviral effect against the genogroup V mouse norovirus (MNV) using the mouse macrophage cell line RAW264.7. This assay evaluates the ability of the compounds to protect infected cells from the virus-induced cytopathic effect, thus being suitable to identify inhibition of virus replication at every step of the virus life cycle, and representing a robust cellular assay available for the rapid evaluation of potential norovirus inhibitors. Compounds identified using MNV have shown effects against HuNoV in vitro and in vivo, as in the case of nucleoside RdRp inhibitor 2′-C-methylcytidine (2CMC)[34]–[36]. Unfortunately, despite not presenting the aqueous solubility issues we had previously encountered for 1[29], no significant antiviral effect could be observed in this assay for the new compounds up to the maximum concentration tested. The new structural modifications, despite retaining inhibition of the RdRp in an isolated enzyme activity assay and showing no cytotoxic effects at the test concentrations in the MNV antiviral assay (Supplementary Table S1), are correlated with a lack of antiviral activity. As these new structures present the same limitation of most non-nucleoside HuNoV polymerase inhibitors reported so far[22], we were prompted to apply a different computer-aided strategy to further modify the scaffold of 1, with the aim to achieve an antiviral effect in cellular systems. […]
Since the main scope of this work was to find new norovirus inhibitors which show antiviral effects against both the HuNoV RdRp and in norovirus-infected cells, priority was given to the evaluation of most of the new molecules for their antiviral activity against MNV in infected RAW cells. The nucleoside 2′-C-methylcytidine was used as positive control. The test compounds were evaluated at eight different concentrations (range 0.6–100 µM) and their ability to reduce the virus-induced cytopathic effect was assessed.
as §1
Antiviral assay with MNV: The antiviral activity of the Compounds was determined using an MTS [3-(4,5-dimethylthiazol-2-yl)-5-(3-carboxymethoxyphenyl)-2-(4-sulfophenyl)-2H-tetrazolium]-based cytopathic effect (CPE) reduction assay. […] Then, a MTS-phenazinemethosulfate (MTS/PMS) stock solution [(2 mg/mL MTS (Promega, Leiden, The Netherlands) and 46 µg/mL PMS (Sigma–Aldrich, Bornem, Belgium) in PBS at pH 6–6.5)] was diluted 1/20 in MEM (Life Technologies, Gent, Belgium) and 75 µL were added to each well. After 2 h, the optical density (OD) was read at 498 nm. The %CPE reduction was calculated as [(ODtreated)MNV − ODVC]/[ODCC − ODVC] × 100, where ODCC represents the OD of the uninfected untreated cells, whereas ODVC and (ODtreated)MNV represent the OD of infected untreated cells and virus-infected cells treated with a compound concentration, respectively. The 50% effective concentration (EC50) was defined as the compound concentration that protected 50% of the cells from virus-induced CPE[34].

A short description of series [1]: Cytotoxicity by the MTS method on uninfected cells. Type of series: cell-based. Conditions: mouse, uninfected RAW 264.7 cells. As to the method:
Cytotoxicity: The cytotoxicity of the Compounds was evaluated by the MTS method, by exposing uninfected cells to the same concentrations of compounds for 3 days. The %cell viability was calculated as (ODtreated/ODCC) × 100, where ODCC is the OD of uninfected untreated cells and ODtreated are uninfected cells treated with compound. The CC50 was defined as the compound concentration that reduces the number of viable cells by 50%[34].
On the technique in general: Tetrazolium dyes change colour on reduction, which living cells bring about.

A further series concerns the target HuNoV (GII.4) RdRp (Norovirus Hu/GII.4/Sydney/NSW0514/2012/AU, UniProt K4L8Z7). Description: Quantitative fluorescent RdRp activity assay (PicoGreen, poly(C) template). Type of series: biochemical, human norovirus Sydney 2012. The procedure: The newly synthesised compounds, including the carboxylate ester derivatives 34–35 and 7 from the Core Hopping approach, were evaluated for their enzymatic inhibition of human norovirus Sydney 2012 (HuNoV (GII.4)) RdRp activity in vitro, using a quantitative fluorescent assay. Compounds were tested at six different concentrations (concentration range examined: 0.1–100 µM) and compared to the relative activity of mock treated samples containing the vehicle only (0.5% DMSO [vol/vol]). PPNDS [Pyridoxal-5′-phosphate-6-(2′-naphthylazo-6′-nitro-4′,8′-disulfonate) tetrasodium salt], a previously reported potent inhibitor of NoV RdRp activity, and 1 were used as positive controls. Dose-dependent inhibitory response curves were used to establish IC50 values for the eight test compounds, as reported in Table 1 (see also Supplementary Fig. S1).
The newly prepared compounds 48–60 were initially evaluated against norovirus Sydney 2012 RdRp activity in vitro using a quantitative fluorescent assay. Compounds were tested at a fixed concentration of 20 µM and compared to the relative activity of mock treated samples. PPNDS and 1 were used as positive controls. […] These two rings are structural features present in 1 and in one of its derivatives we have previously reported. […] From these observations, the thiophene ring appears not to influence inhibitory activity. Derivatives in which the central core of 48 has been used to link the two terminal hydrophobic rings of 1 or of its derivatives we have previously reported[25] (55, 57, 58) appear to retain the RdRp inhibitory activity found for 48 (~20% at 20 µM). A similar effect is obtained when a sulfonyl group, as in our hit 1, is used to link ring 2, regardless if it is a thiazole (59) or an unsubstituted phenyl ring (60), to the rest of the molecule. […] Overall, even if showing a reduced biochemical activity in comparison with 1, some of the new derivatives can be considered as modest HuNoV RdRp inhibitors at 20 µM.
Fluorescent RdRp activity assays were carried out as previously described[12],[29]. Briefly, RdRp activity was quantified by monitoring the formation of double-stranded RNA (dsRNA) from a single stranded homopolymeric template, poly(C) (Sigma Aldrich), using the fluorescent dye PicoGreen (Life Technologies, Carlsbad, CA, USA). RdRp assays were performed in 384-well plates, and each reaction mixture contained 400 ng enzyme, 45 μM GTP, 10 ng/μL poly(C) RNA, 2.5 mM MnCl2, 5 mM dithiothreitol, (DTT), 0.01% bovine serum albumin (BSA), and 0.005% Tween 20 in 20 mM Tris-HCl, pH 7.5, with a final reaction volume of 25 μL. The PPNDS and compound 1 were used as a positive controls. RdRps were incubated for 10 mins at 30 °C in the presence of the test compounds or the compound vehicle DMSO (0.5% vol/vol) before addition into the reaction mixture, which was then allowed to run 15 min at 30 °C then terminated with 10 mM EDTA, followed by PicoGreen staining and dsRNA quantitation. GraphPad Prism V6.05 (La Jolla, CA, USA) was used to plot the IC50 values. A secondary gel-based polymerase activity assay was used as a counter-screen as described below, to exclude the possibility of RdRp activity enhancement. Primed elongation activity was examined in a gel-based assay as previously described[12],[29] using the RNA template (PE44-NoV). Gels were imaged using BioRad (Hercules, CA, U.SA) Geldoc Universal Hood II, running BioRad Image Lab software, V4.1, build 16.

Where [2] appears, read: Norwalk virus, HGT-1, 72 h, read-out: EC50 values (column head printed 'M'), HuNoV GI replicon in HGT-1 cells, replicon RNA by qRT-PCR.
Setting [3] is: Table 2, RAW 264.7, range 0.6–100 µM, at least three independent experiments.
The mark [4] stands for this setting: Table 2, at least three independent experiments.
[5] abbreviates: Supplementary Table S1, at least two independent experiments.

For orientation: EC50 means the concentration needed to bring the measured effect to its halfway point. For orientation: CC50 means the concentration at which the toxic effect on the cells reaches its halfway point. Read a low CC50 as harm at low concentration.

Turning to `CCOC(=O)/C=C/[C@H](C[C@@H]1CCNC1=O)NC(=O)[C@@H](CC(=O)[C@@H](NC(=O)c1cc(C)on1)C(C)C)Cc1ccc(F)cc1` [Rupintrivir, reference compound], in the series with HuNoV GI.1 replicon (setting [2]), the EC50 is 1.5 ± 0.4 µM.

As for `O=C(NC(=S)Nc1ccc(N2CCN(S(=O)(=O)c3cccs3)CC2)cc1)c1ccccc1` [Compound 59, N-((4-(4-(Thiophen-2-ylsulfonyl)piperazin-1-yl)phenyl)carbamothioyl)benzamide], the “EC50 values (column head printed 'M')” value in the series on HuNoV GI.1 replicon (HuNoV GI replicon in HGT-1 cells, 72 h, replicon RNA by qRT-PCR) is listed as “low micromolar range”. Further, the EC50 in the series on HuNoV GI.1 replicon (setting [2]) stood at 10 µM; in the series on HuNoV GI.1 replicon (read-out: EC50 values (column head printed 'M'), HuNoV GI replicon in HGT-1 cells, 72 h, replicon RNA by qRT-PCR) it was 10.9 ± 11.1 µM; in the series with MNV (setting [3]) it was 43.8 ± 16.9 µM. The same compound had a CC50 at 3 days in series [1] (setting [4]) of over 100 µM.

`O=C(NC(=S)Nc1ccc(N2CCN(C(=O)c3ccccc3)CC2)cc1)c1sc2ccccc2c1Cl` [Compound 54, N-((4-(4-Benzoylpiperazin-1-yl)phenyl)carbamothioyl)-3-chlorobenzo[b]thiophene-2-carboxamide] had an EC50 in the series on MNV (setting [3]) of over 100 µM. For the same compound, the inhibition at 20 µM at HuNoV (GII.4) RdRp (20 µM, read-out: inhibition of HuNoV RdRp activity at fixed concentration) was at most 60%. Moreover, the half-maximal cytotoxic concentration (CC50) at 3 days in series [1] (setting [4]) was found to be 4.5 ± 0.7 µM.

As to `O=C1NN(c2ccccc2)C(=O)/C1=C/c1ccc(-c2ccc(S(=O)(=O)Nc3ncccn3)cc2)o1` [Compound 4, (E)-4-(5-((3,5-dioxo-1-phenylpyrazolidin-4-ylidene)methyl)furan-2-yl)-N-(pyrimidin-2-yl)benzenesulfonamide], in the series on MNV (setting [5]), the EC50 is over 50 µM. The inhibition at 100 µM on HuNoV (GII.4) RdRp (100 µM, read-out: inhibition of RdRp activity at the maximum concentration tested) turned out to be 15%. Further, half-maximal cytotoxicity in series [1] (setting [5]) (CC50 at 3 days) was put at 60 ± 21 µM.
